From US20080200635A1, “POLYSILANE COMPOUND AND SYNTHESIS METHOD, ULTRAVIOLET-RAY CURABLE INK COMPOSITION, INKJET RECORDING METHOD AND APPARATUS, AND INK CONTAINER” (SEIKO EPSON CORPORATION, priority 2007, published 2008)

Experiments:
[1] = primary irritation index; cited from earlier work
[2] = Viscosity of monomers at 25° C.; type: physicochemical; settings: measured value at 25° C.
Procedure: The viscosities in the foregoing table are a measured value at 25° C.

## C=CC(=O)OCCOCCOC [Methoxy diethylene glycol monoacrylate]
[1]
  P.I.I.: 0.7
[2]
  Viscosity: 2 mPa · s

## C=CC(=O)O[C@@H]1C[C@H]2CC[C@]1(C)C2(C)C [Isobonyl acrylate]
[1]
  P.I.I.: 0.6
[2]
  Viscosity: 2.6 mPa · s

## C=C(C)C(=O)OCC(C)(C)COC(=O)C(=C)C [Neopentyl glycol dimethacrylate]
[1]
  P.I.I.: 0.0
[2]
  Viscosity: 7 mPa · s

## C=CC(=O)N1CCOCC1 [Acryloyl morpholine]
[2]
  Viscosity: 12 mPa · s

## Polyethylene glycol #400 diacrylate
[1]
  P.I.I.: 0.4
[2]
  Viscosity: 58 mPa · s

## C=CC(=O)OCCOc1ccccc1 [Phenoxyethyl acrylate]
[1]
  P.I.I.: 1.7
[2]
  Viscosity: 3.3 mPa · s

## C=CC(=O)OCC(C)OCC(C)OCC(C)OC(=O)C=C (centres unmarked) [Tripropylene glycol diacrylate]
[1]
  P.I.I.: 1.6
[2]
  Viscosity: 12 mPa · s

## C=C(C)C(=O)OCCCCCCOC(=O)C(=C)C [1,6-Hexanediol dimethacrylate]
[1]
  P.I.I.: 0.5
[2]
  Viscosity: 6 mPa · s

## C=C(C)C(=O)OCC1COC(C)(CC)O1 (centres unmarked) [(2-Methyl-2-ethyl-1,3-dioxolan-4-yl)methyl methacrylate]
[1]
  P.I.I.: 1.3
[2]
  Viscosity: 5.1 mPa · s

## Trimethylolpropane PO-modified triacrylate
[1]
  P.I.I.: 0.1
[2]
  Viscosity: 60 mPa · s

## C=C(C)C(=O)OCCCCOC(=O)C(=C)C [1,4-Butanediol dimethacrylate]
[1]
  P.I.I.: 2.0
[2]
  Viscosity: 7 mPa · s

## C=C(C)C(=O)OCCOCCOCCOCCOC(=O)C(=C)C [Tetraethylene glycol dimethacrylate]
[1]
  P.I.I.: 0.5
[2]
  Viscosity: 14 mPa · s

## Glycerin PO-modified triacrylate
[2]
  Viscosity: 75 mPa · s

## C=C(C)C(=O)OCCOC(=O)C(=C)C [Ethylene glycol dimethacrylate]
[1]
  P.I.I.: 0.6
[2]
  Viscosity: 3 mPa · s

## C=CC(=O)OCC1COC(C)(CC(C)C)O1 (centres unmarked) [(2-Methyl-2-isobutyl-1,3-dioxolan-4-yl)methyl acrylate]
[1]
  P.I.I.: 1.0
[2]
  Viscosity: 5.3 mPa · s

## C=C(C)C(=O)OCCOCCOC(=O)C(=C)C [Diethylene glycol dimethacrylate]
[1]
  P.I.I.: 0.5
[2]
  Viscosity: 5 mPa · s

## C=CC(=O)OCCCCCCCCCOC(=O)C=C [1,9-Nonanediol diacrylate]
[1]
  P.I.I.: 2.0
[2]
  Viscosity: 21 mPa · s

## C=C(C)C(=O)OCC(O)COC(=O)C(=C)C [2-Hydroxy-1,3-dimethacryloxypropane]
[1]
  P.I.I.: 0.6
[2]
  Viscosity: 37 mPa · s

## Trimethylolpropane modified triacrylate
[1]
  P.I.I.: 1.5
[2]
  Viscosity: 55 mPa · s

## C=C(C)C(=O)OCC(CC)(COC(=O)C(=C)C)COC(=O)C(=C)C [Trimethylolpropane trimethacrylate]
[1]
  P.I.I.: 0.8
[2]
  Viscosity: 42 mPa · s
